How the values were obtained:
HEI-193 cells [1] = assay: MTT cell viability assay in HEI-193 cells; format: cell-based, human; details: indicated concentrations, 7 days (FIG. 5A)
Experimental: To measure cell viability, MTT (3-(4,5-dimethylthiazol-2-yl)-2,5-diphenyltetrazolium bromide) assay was used. In other words, the cells were seeded in 96-well plates and treated with the indicated chemicals for a predetermined time. After removing the medium, 200 μl of MTT solution (0.5 mg/ml) dissolved in PBS was added to each well. Plates were then cultured at 37° C. for 4 hours, the MTT solution was removed, the precipitated substances were dissolved using a solution (DMSO:ethanol=1:1), and an amount of formazan dye produced was quantified by measuring the absorbance at 560 nm using an ELISA microplate reader (Thermo Fisher Scientific, MA, USA).

[2] = biological target: T1, interaction between TβR1 and RKIP (Homo sapiens, UniProt P30086+P36897); assay: GST-pull down assay of TβR1-RKIP interaction; format: binding
T1 construct: host or cells: HEK293 (TβR1 lysate)
Experimental: For protein-protein interaction analysis, glutathione S-transferase (GST)-pull down assay was performed. For GST-pull down, agarose-bead-conjugated GST-RKIP recombinant protein was reacted with FLAG-tagged TβR1-transfected HEK 293 cell lysates in PBS buffer at 4° C. for 1 hour. Immunoprecipitation (IP) assay was performed by reacting with FLAG-tagged TβR1- or HA-tagged RKIP-transfected HEI-193 cell lysates in PBS buffer. Whole lysates were reacted with appropriate primary antibodies at 4° C. for 2 hours and with agarose-bead-conjugated protein A/G (Invitrogen, Carlsbad, CA, USA) for 2 hours. After centrifugation, the precipitates were washed twice with RIPA buffer and subjected to SDS-PAGE and western blotting analysis.

Erk = Erk activation by Western blotting in HEI-193 cells; format: cell-based, human; details: 24 h (FIG. 6A)
Experimental: (§1) Cells were harvested and lysed using RIPA buffer [50 mM Tris-Cl, pH 7.5, 150 mM NaCl, 1% NP-40, 0.1% SDS, and 10% sodium deoxycholate] to examine cellular signaling. Protein concentrations in samples were measured using Bio-Rad (Hercules, CA, USA) protein assay kits and BSA standards. The samples (20 μg protein per lane) were separated by sodium dodecyl sulfate-polyacrylamide gel electrophoresis (SDS-PAGE), transferred to Immobilon-P^SQ transfer membranes (Millipore Corp., MA, USA), which were then cultured with 3% skim milk-containing TBS-T buffer (Tris-HCl-based buffer containing 20 mM Tris pH 7.6, 150 mM NaCl, and 0.05% Tween 20) for 1 hour at room temperature and then reacted with primary antibody in TBS-T overnight at 4° C. The membranes were then washed and reacted with secondary horseradish peroxidase (HRP)-conjugated antibodies [goat anti-mouse, goat anti-rabbit, and mouse anti-goat antibodies (Pierce, Thermo Fisher Scientific, Inc., Rockford, IL, USA)] in TBS-T at room temperature for 2 hours. The blots were detected using an HRP-conjugated secondary antibody using ECL kit (Intron, Seoul, Korea).

TGF-β signaling [3] = assay: Smad2/3 phosphorylation after TGF-β1 in HEI-193 cells; format: cell-based, human; details: 10 μM, TGF-β1 1 ng/ml (FIGS. 16A, 16B)
Experimental: as §1

TGF-β signaling [4] = assay: 3TP-luciferase assay in HEI-193 cells; format: cell-based, human; details: high concentrations, TGF-β1 2 ng/ml (FIG. 8D)
Experimental: To estimate the transcriptional activity of TGF-β signaling, 3TP-Luc vectors were transfected into cells for 24 hours, and the cells were treated with the indicated chemicals. After washing with wash buffer (Promega, Wisconsin, USA), the cells were lysed using lysis buffer (Promega, Wisconsin, USA). Luciferase activity was measured using a luminometer (MicroDigital, Gyeonggi-do, Korea).

HEI-193 cells [5] = assay: Cell proliferation (cell counting) in HEI-193 cells; format: cell-based, human; details: 10 μM, indicated time (FIG. 12B)
Experimental: Cell growth curves were analyzed by seeding 2×10^4 cells/well into a 6-well plate. After the indicated day, the cells were trypsinized and dissociated into single cells. A minimum of 10,000 cells were counted using an Attune NxT flow cytometer (Thermo Fisher Scientific, Inc., Rockford, IL, USA).

HEI-193 cells [6] = assay: RT-PCR gene expression in HEI-193 cells; format: cell-based, human
Experimental: For RT-PCR, total cellular RNA was extracted using an RNA extraction kit (Qiagen). Gene expression analysis was performed using cDNA synthesized from total RNA with MMLV RT (Invitrogen, Carlsbad, USA) and random hexamer. PCR from genomic DNA was performed using DiaStar Taq DNA polymerase (SolGent, Daejeon, Korea), and gene expression analysis was performed using the following specific primers: […]

HEI-193 cells [7] = assay: Tumorsphere formation assay, HEI-193 cells; format: cell-based, human; details: 10 μM
Experimental: (§2) For tumorsphere formation assay, Hei-193 or mouse schwannoma cells (3×10^6 cells/plate) were cultured in DMEM/F12 medium (supplemented with 2% B27 and 40 ng/ml bFGF) and added with the indicated chemicals on non-coated plates for indicated days.

mouse schwannoma cells [8] = assay: Tumorsphere formation assay, mouse schwannoma cells; format: cell-based; details: 10 μM
Experimental: as §2

mouse schwannoma cells [9] = assay: Allograft tumor growth assay; format: in vivo
Experimental: For allograft, 1×10^7 mouse schwannoma cells were seeded subcutaneously on FVB/NJ mice (8 weeks old). Tumor-bearing mice were administered with the carrier (n=8) or PRG-N-01 (20 mg/kg; n=8) by intraperitoneal injection for 5 weeks (3 times per week). Every week, the tumor volume and body weight were measured. After termination of the experiment in each group, mice were dissected, and tumor tissues were isolated.
To examine the in vivo effect of PRG-N-01, NF2 model mouse-derived schwannoma cells were allografted to 8-week-old mice, and PRG-N-01 was administered by intraperitoneal injection (20 mg/kg, 3 times a week).

[10] = High-dose toxicity in normal mice (body weight); format: in vivo
[11] = tumorspheres, 10th day, immunoblotting (FIGS. 15B, 14E)
[12] = isolated allograft tumors, RT-PCR (FIG. 17E)

T1 sequence (P30086 whole entry): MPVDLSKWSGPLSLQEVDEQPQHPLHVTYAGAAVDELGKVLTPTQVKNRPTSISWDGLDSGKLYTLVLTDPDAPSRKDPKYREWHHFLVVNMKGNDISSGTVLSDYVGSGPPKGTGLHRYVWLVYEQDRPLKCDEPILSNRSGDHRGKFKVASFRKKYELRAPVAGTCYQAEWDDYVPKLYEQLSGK
T1 sequence (P36897 34-503): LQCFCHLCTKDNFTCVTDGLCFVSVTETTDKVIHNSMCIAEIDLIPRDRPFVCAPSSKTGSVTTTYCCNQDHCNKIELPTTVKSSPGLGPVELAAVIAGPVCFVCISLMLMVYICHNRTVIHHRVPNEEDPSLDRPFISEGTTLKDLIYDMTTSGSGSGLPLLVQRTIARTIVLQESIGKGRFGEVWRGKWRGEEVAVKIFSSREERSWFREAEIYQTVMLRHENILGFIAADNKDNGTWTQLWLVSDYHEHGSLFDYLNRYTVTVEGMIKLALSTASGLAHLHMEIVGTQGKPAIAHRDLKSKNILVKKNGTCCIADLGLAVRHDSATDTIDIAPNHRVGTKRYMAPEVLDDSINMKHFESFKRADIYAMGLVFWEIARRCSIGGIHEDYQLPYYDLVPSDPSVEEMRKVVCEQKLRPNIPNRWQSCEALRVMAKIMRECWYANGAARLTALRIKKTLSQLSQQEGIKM

What does the source list for `CCN(CC)CCOc1ccc(-c2nnn(Cc3ccc(OC)cc3)c2N)cc1` [PRG-N-01, 4-(4-(2-(diethylamino)ethoxy)phenyl)-1-(4-methoxybenzyl)-1H-1,2,3-triazol-5-amino]?
antiproliferative effect in NF2 cells (MTT) (HEI-193 cells [1]): obvious antiproliferative effect; interaction between TβR1 and RKIP at low concentrations ([2]; GST pull-down, low concentrations (FIG. 6B)): showed an inhibitory effect even at low concentrations; interaction between TβR1 and RKIP ([2]; GST-RKIP beads with TβR1-transfected HEK293 lysates, 5 and 10 μM, 2 h (FIG. 5B)): inhibited the interaction between TβR1 and RKIP in a dose-dependent manner; Erk activation (Erk): inhibited Erk activation; duration of Smad 2/3 phosphorylation (canonical TGF-β signaling) (TGF-β signaling [3]): prolonged; TGF-β signaling (3TP-luciferase activity) (TGF-β signaling [4]): did not inhibit TGF-β signaling even at high concentrations; cell growth (cell count) (HEI-193 cells [5]): completely inhibited cell growth; expression of cell cycle-related genes (CDK1, CDK4, CCNB1, PLK4) (HEI-193 cells [6]; RT-PCR (FIG. 12D)): decreased; expression of schwann cell markers (PLP, MBP, GFAP MPZ, PMP22, SOX10) (HEI-193 cells [6]; RT-PCR (FIGS. 12D, 13C)): increased; tumorsphere size and number (HEI-193 cells [7]; HEI-193 cells, 10th day): reduced the tumorsphere size as well as the number of tumorsphere; tumorsphere formation (HEI-193 cells [7]; HEI-193 cells, DMEM/F12 medium): obviously inhibited tumorsphere formation; SOX10 expression in tumorspheres (HEI-193 cells [7]; [11]): obviously increased; expression of stem cell factors (SOX2, c-Myc, Nanog, Oct4) in tumorspheres (HEI-193 cells [7]; [11]): downregulated to undetectable levels; tumorsphere size and number (mouse schwannoma cells [8]; 10th day): reduced the tumorsphere size as well as the number of tumorsphere; tumorsphere formation (mouse schwannoma cells [8]; DMEM/F12 medium): obviously inhibited tumorsphere formation; SOX2 mRNA in tumor tissues (mouse schwannoma cells [9]; [12]): reduction; schwann cell markers and SOX10 mRNA in tumor tissues (mouse schwannoma cells [9]; [12]): induction; RKIP, schwann cell markers (PLP, MBP, MPZ) and SOX10 at the protein level in tumor tissues (mouse schwannoma cells [9]; isolated allograft tumors, immunoblotting (FIG. 17D)): induction; tumor growth (mouse schwannoma cells [9]; mouse schwannoma allograft in FVB/NJ mice, 20 mg/kg i.p., 3 times a week, 5 weeks): inhibited tumor growth; tumor size and weight (mouse schwannoma cells [9]; mouse schwannoma allograft, 20 mg/kg i.p., 3 times a week, 5 weeks (FIGS. 17B, 17C)): obviously suppressed; body weight ([10]; 200 mg/kg intraperitoneally (FIG. 18B)): did not change the body weight; toxicity ([10]; 200 mg/kg, 10 times the therapeutic dose): did not cause severe toxicity

Reference: US20240092741A1, “COMPOSITION FOR PREVENTION OR TREATMENT OF NEUROFIBROMATOSIS TYPE 2 SYNDROME” (PRG S&TECH INC., priority 2021, published 2024)
